Experimental data taken from the supplement of paper PMC10307832.

Tests used:
Experiment in all cases: relative viability (nuclei count vs DMSO), 5 days (fraction); higher = more cells survive
[1] = compound: COC1=CC=C(C=C1)CN2C=CC3=C2C=C(C=C3)C(=O)NO + CS(=O)(=O)CCNCc1ccc(-c2ccc3ncnc(Nc4ccc(OCc5cccc(F)c5)c(Cl)c4)c3c2)o1 [Lapatinib] (partner 2 µM)
How it was run: (§1)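 For relative viability, nuclei counts in treated wells were divided by those in vehicle wells. Lung cancer cell lines had been pin-tool dosed in 1536-well plates the day after seeding and cultured for 5 days, then fixed and stained in one step (final 0.05% Triton X-100, 1% formaldehyde, 1 ug/ml Hoechst) and imaged at 4×. Doses were one drug alone or a fixed anchor-drug dose plus five library-drug doses (not always all listed) in √10 steps, and values are duplicate-plate medians.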

[2] = compound: C[C@]1(c2nc3c(C(N)=O)cccc3[nH]2)CCCN1 [Veliparib] + Cc1cc(Nc2cc(N3CCN(C)CC3)nc(Sc3ccc(NC(=O)C4CC4)cc3)n2)n[nH]1 [Tozasertib] (partner 0.1 µM)
How it was run: as §1

[3] = compound: C[C@]1(c2nc3c(C(N)=O)cccc3[nH]2)CCCN1 [Veliparib] + Cc1nc(NC(=O)N2CCC[C@H]2C(N)=O)sc1-c1ccnc(C(C)(C)C(F)(F)F)c1 [Alpelisib] (partner 2 µM)
How it was run: as §1

[4] = compound: C[C@]1(c2nc3c(C(N)=O)cccc3[nH]2)CCCN1 [Veliparib] + O=C(c1cc(Cc2n[nH]c(=O)c3ccccc23)ccc1F)N1CCN(C(=O)C2CC2)CC1 [Olaparib] (partner 8 µM)
How it was run: as §1

Cell Line	relative viability ([1]; first compound 0.08 µM)	relative viability ([1]; first compound 0.253 µM)	relative viability ([1]; first compound 0.8 µM)	relative viability ([1]; first compound 2.53 µM)	relative viability ([1]; first compound 8 µM)	relative viability ([2]; first compound 0.02 µM)	relative viability ([2]; first compound 0.06325 µM)	relative viability ([2]; first compound 0.2 µM)	relative viability ([2]; first compound 0.6325 µM)	relative viability ([2]; first compound 2 µM)	relative viability ([3]; first compound 0.02 µM)	relative viability ([3]; first compound 0.06325 µM)	relative viability ([3]; first compound 0.2 µM)	relative viability ([3]; first compound 0.6325 µM)	relative viability ([3]; first compound 2 µM)	relative viability ([4]; first compound 0.02 µM)	relative viability ([4]; first compound 0.06325 µM)	relative viability ([4]; first compound 0.2 µM)	relative viability ([4]; first compound 0.6325 µM)	relative viability ([4]; first compound 2 µM)
NCI-H3122	0.959	0.934	1.03	1.04	0.959	0.439	0.428	0.453	0.383	0.395	0.785	0.755	0.768	0.76	0.752	0.628	0.571	0.549	0.619	0.623
PC-3 [JPC-3]	0.423	0.486	0.493	0.49	0.478	0.87	0.902	0.822	0.864	0.845	1.1	0.981	0.959	1.03	0.993	1.17		1.22	1.06	1.07
PC-14	0.199	0.349	0.38	0.384	0.373	0.638	0.584	0.562	0.526	0.674	0.923	0.862	0.796	0.886	0.893	0.342	0.326	0.368	0.38	0.204
RERF-LC-KJ	0.428	0.881	0.924	0.95	0.869	0.515	0.5	0.521	0.481	0.485	0.715	0.891	0.96	0.761	0.74	1.03	0.795	0.814	0.881	0.85
SK-LU-1	0.711	0.781	1.04	0.905	0.81	0.366	0.32	0.37	0.344	0.343	1.12	0.943	1.12	0.927	1.19	0.492	0.415	0.491	0.364	0.424
SK-MES-1	0.473	0.519	0.534	0.497	0.446	0.972	0.903	0.843	0.821	0.858	0.938	0.712	0.878	0.785	0.848	0.931	0.748	0.77	0.632	0.686
UMC-11	0.374	1.14	1.05	1.02	0.916	0.234	0.223	0.231	0.213	0.212	1.01	0.941	1.14	0.947	0.972	0.627	0.336	0.485	0.359	0.438
